Consider 24 compounds from patent publication EP0787493A1, “Tetrahydroisoquinoline derivatives” (priority 1996, dated 1997).

Test [1] has as its target NMDA receptors. The test is described as follows: 3H-MK801 (Dizocilpine) binding in vitro. To be noted: rat whole brain membranes, 5nM 3H-MK-801, glutamate, glycine and spermidine present. The method, then:
3H-MK801 (Dizocilpine) binding in vitro
The whole brain from 150-200g male rats, without cerebellum and without medulla oblongata was dissected on ice. The tissue was then homogenized with an Ultra-Turrax maximum speed during 30 seconds at 4°C in 50 volumes of cold Tris HCI 50mM, EDTA disodium 10mM, pH=7.4 buffer (wet weight/v). The homogenate was centrifuged at 48'000 x g (20'000 rpm, SS34, Sorvall RC5C) for 10 minutes. The pellet was rehomogenized with the same volume of buffer and the homogenate incubated at 37°C for 10 minutes. After centrifugation as above, the pellet was rehomogenized with the same volume of buffer and frozen at -80°C in 35 ml fractions for at least 16 hours and not more than 2 weeks.
For the binding experiment, the homogenate was centrifuged as above and the pellet was washed 3 times by homogenization in 25 volumes of cold Tris HCl 5mM, pH=7.4 buffer (Ultra-Turrax, maximum speed, 30 seconds) and centrifugation as above. The final pellet was rehomogenized in 25 volumes of buffer (original wet weight) and used as such in the assay. The final concentration of membrane in the assay was 20mg/ml (wet weight).
The incubation was performed in the presence of 1nM glutamate, glycine and spermidine. MK-801, (+)-[3-3H(N)], NEN (NET-972) 20Ci/mmol, was used at 5nM final concentration. Non specific binding was determined in presence of […] TCP. After 2 hours of incubation at room temperature, the suspension was filtered (Whatmann GF/B, soaked in 0.1% polyethylenimine for 2 hours) and washed 5 times with 3 ml of cold Tris HCl 5mM, pH=7.4 buffer. The air-dried filters were counted with 10ml of Ultima-gold (Packard) in a Tri-Carb 2500 TR scintillation counter after agitation.
The DPM were transformed in % of specific binding and these values were treated by a non linear regression calculation program (BINDING, H. Affolter, Switzerland) which provided the IC50 values for the low and high affinity binding sites (= concentrations producing half maximal inhibition at the respective sites). Each experiment was repeated at least three times and the final IC50 values were calculated as the mean +/-standard deviation of the individual experiments.
Reference: R.W. Ransom and N.L. Stec. Journal of Neurochemistry 51, 830-836, 1988.

Test [2] deals with T1, NMDAR1C - NMDAR2A (Rattus norvegicus, UniProt P35439+Q00959).
T1 construct: expressed in transfected cells; host or cells: Xenopus laevis oocytes injected with in vitro transcribed mRNA (1:1 mixture)
Kind of test: Electrophysiology on recombinant NMDA receptors expressed in oocytes. Format: cell-based. To be noted: Xenopus laevis oocytes, voltage clamp -80 mV; 70 µM Asp plus 2.5 µM Gly; read-out: Electrophysiology/IC50 (µM) oocytes NMDAR 1C & 2A. The source says: (§1) Electrophysiology on recombinant NMDA receptors.
(§2) cDNA clones coding for the subunits NMDAR1C and NMDAR2A of the NMDA receptor (see Hollmann and Heinemann, 1994, Annu. Rev. Neurosci. 17: 31 for nomenclature of NMDA receptor subunits) were isolated from a rat brain λgt11 cDNA library as published elsewhere (Sigel et al., 1994, J. Biol. Chem. 269:8204). The clone for the subunit NMDAR2B of the rat brain NMDA receptor was obtained from S.Nakanishi (Kyoto, Japan). The cDNAs were transcribed, capped and poly(A^+)-tailed as described previously (Malherbe et al., 1990, Mol. Brain Res. 8: 199). Oocytes of South African frogs (Xenopus laevis) were used for expressing either a combination of the NMDAR1C and NMDAR2A subunits or the NMDAR1C and NMDAR2B subunits. Approximately 3 fmol of a 1:1 mixture of the respective mRNA species were injected into every oocyte. Four to five days later the ion current through the NMDA receptor channels was measured in voltage clamp experiments (see Methfessel et al., 1986, Pflügers Arch. 407: 577 for the methods of oocyte expression and voltage-clamping). The membrane potential was clamped to -80 mV and the receptors were activated by applying a modified Ringer's solution containing the agonists L-asparatate (Asp) and glycine (Gly). Different agonist concentrations were chosen for either subunit combination to account for the different agonist sensitivities of the two types of receptors (70 µM Asp plus 2.5 µM Gly for NMDAR1C - NMDAR2A and 15 µM Asp plus 0.2 µM Gly for NMDAR1C - NMDAR2B). The agonists were applied for 15 s intervals once every 2.5 min by rapid superfusion of the oocyte. After a series of initial control stimuli increasing concentrations of the antagonist to be tested were added to both, the basal Ringer's and the agonist containing solution. For the data analysis the amplitude (y) of the agonist-induced current was plotted versus the concentration (x) of the antagonist and the logistic function y =A/[1 +(x/IC50)^H ] [formula] was fitted to the data to estimate the 50 % inhibitory concentration (IC50). Three to six oocytes were tested for every antagonist and if possible, at least 3 concentrations embracing the IC50 were applied to every oocyte. […] In two other cases a concentration of 0.1 µM produced a slowly increasing block which exceeded 50% after 30 min. […] Figures for the IC50 in all other cases are arithmetic mean values of individual IC50s determined by the logistic curve fits.

Test [3] deals with T2, NMDAR1C - NMDAR2B (Rattus norvegicus, UniProt P35439+Q00960).
T2 construct: expressed in transfected cells; host or cells: Xenopus laevis oocytes injected with in vitro transcribed mRNA (1:1 mixture)
The test is described as above. Format: cell-based. The note with it: Xenopus laevis oocytes, voltage clamp -80 mV; 15 µM Asp plus 0.2 µM Gly; read-out: Electrophysiology/IC50 (µM) oocytes NMDAR 1C & 2B.
Text: as §1, §2

[4] abbreviates: high affinity binding site, read-out: 3H-MK 801 / IC50 (µM) high.
The mark [5] stands for this setting: low affinity binding site, read-out: 3H-MK 801 / IC50 (µM) low.

Read-outs that look alike come from different tables or passages of the source.

T2 sequence (Q00960 27-1482, other chains not shown): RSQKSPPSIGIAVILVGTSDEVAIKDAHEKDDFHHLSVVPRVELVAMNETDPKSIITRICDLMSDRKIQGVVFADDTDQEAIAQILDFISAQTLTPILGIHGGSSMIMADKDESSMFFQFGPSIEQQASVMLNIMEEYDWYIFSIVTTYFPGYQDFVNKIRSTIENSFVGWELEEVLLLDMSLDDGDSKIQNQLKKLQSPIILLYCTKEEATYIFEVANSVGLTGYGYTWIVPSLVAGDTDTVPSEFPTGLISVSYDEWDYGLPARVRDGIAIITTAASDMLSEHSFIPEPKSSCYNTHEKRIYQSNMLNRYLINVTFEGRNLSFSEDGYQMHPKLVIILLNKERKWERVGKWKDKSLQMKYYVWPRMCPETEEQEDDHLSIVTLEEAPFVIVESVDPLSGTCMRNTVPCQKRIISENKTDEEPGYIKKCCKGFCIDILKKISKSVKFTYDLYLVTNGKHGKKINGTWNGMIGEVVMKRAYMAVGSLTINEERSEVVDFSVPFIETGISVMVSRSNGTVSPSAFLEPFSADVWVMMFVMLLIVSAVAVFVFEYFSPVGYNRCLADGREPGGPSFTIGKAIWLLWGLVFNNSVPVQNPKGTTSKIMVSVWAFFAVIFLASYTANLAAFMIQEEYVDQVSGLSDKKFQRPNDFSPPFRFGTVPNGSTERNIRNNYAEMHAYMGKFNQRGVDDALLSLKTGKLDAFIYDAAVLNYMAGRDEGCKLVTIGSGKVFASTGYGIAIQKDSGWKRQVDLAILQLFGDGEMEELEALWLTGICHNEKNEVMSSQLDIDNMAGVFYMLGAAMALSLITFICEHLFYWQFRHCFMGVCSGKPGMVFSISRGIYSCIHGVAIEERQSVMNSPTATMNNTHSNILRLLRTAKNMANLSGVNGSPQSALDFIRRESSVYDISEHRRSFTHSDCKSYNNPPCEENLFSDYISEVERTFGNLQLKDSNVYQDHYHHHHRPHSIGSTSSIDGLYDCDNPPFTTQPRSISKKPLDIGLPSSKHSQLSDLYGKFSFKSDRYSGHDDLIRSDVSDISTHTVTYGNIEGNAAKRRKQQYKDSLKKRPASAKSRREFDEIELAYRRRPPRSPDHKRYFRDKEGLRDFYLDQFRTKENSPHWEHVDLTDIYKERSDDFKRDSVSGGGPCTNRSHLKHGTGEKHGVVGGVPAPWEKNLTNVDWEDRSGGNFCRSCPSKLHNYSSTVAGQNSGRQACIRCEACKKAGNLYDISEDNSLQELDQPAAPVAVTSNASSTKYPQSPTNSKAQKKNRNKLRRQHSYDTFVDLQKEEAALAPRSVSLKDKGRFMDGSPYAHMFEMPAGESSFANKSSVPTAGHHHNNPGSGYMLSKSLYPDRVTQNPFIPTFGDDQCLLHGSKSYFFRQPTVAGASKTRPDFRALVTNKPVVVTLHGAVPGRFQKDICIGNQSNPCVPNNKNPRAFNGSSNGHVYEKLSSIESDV
T1 sequence (Q00959 23-1464, other chains not shown): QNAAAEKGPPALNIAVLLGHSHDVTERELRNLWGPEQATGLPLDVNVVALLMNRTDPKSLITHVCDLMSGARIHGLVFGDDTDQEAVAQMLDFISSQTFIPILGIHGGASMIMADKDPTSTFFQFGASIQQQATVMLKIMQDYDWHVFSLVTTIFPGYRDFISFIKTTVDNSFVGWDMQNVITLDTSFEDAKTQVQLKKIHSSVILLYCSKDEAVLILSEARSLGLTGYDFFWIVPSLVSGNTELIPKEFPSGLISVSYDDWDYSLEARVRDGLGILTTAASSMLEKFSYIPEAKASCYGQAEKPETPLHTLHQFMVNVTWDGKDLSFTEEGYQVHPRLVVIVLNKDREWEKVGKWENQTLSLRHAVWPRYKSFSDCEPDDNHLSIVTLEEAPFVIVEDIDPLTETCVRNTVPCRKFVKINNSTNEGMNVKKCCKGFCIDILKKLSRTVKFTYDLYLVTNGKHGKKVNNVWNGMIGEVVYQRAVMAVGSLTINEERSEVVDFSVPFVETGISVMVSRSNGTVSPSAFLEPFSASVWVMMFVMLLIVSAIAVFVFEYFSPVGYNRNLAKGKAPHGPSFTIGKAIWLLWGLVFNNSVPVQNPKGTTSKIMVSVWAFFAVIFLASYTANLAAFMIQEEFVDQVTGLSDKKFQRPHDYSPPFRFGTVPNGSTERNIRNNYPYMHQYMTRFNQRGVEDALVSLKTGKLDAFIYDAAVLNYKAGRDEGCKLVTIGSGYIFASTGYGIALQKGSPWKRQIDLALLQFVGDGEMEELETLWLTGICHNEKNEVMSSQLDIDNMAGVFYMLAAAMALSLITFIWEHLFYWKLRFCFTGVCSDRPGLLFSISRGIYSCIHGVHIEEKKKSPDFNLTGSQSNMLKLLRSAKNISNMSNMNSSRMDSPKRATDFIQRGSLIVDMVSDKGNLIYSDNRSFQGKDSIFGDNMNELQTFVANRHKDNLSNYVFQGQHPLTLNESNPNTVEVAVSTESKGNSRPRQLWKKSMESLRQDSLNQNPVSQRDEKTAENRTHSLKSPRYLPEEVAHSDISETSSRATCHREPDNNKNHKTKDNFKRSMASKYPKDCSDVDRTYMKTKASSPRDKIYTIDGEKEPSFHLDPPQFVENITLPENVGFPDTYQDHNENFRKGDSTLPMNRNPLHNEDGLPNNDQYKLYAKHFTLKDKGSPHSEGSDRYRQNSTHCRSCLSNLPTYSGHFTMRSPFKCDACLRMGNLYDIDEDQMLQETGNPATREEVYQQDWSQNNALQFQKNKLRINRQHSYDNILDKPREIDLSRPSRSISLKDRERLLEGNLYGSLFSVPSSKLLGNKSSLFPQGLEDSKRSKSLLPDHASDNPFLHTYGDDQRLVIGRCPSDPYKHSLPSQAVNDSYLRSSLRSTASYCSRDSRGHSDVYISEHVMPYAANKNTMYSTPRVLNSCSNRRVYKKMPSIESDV

Take `COc1cc2c(cc1OC)C(CCc1ccc([N+](=O)[O-])cc1)N(C)CC2` (stereo not shown) [O]: the IC50 in test [1] (setting [4]) was found to be 1.6 µM; in test [1] (setting [5]) it was 101 µM.
Taken in the same sequence, the figures for `CCC(=O)OC(CC1c2cc(OC)c(OC)cc2CCN1C)c1ccc(Cl)cc1` (stereo not shown) [S] were 2.18 µM and 123 µM.
Taken in the same sequence, the figures for `Cc1cc2c(cc1C)C(CCc1ccc(Cl)cc1)N(C)C(C)C2` (stereo not shown) [X] were 3.87 µM and 2230 µM.
Taken in the same sequence, the figures for `COc1cc2c(cc1OC)C(CCc1ccc([N+](=O)[O-])cc1)N(C)CC2` (stereo not shown) [U] were 2.71 µM and 87 µM.
On to `CN1CCc2cc(O)c(O)cc2C1CCc1ccc(Cl)cc1` (stereo not shown) [D, 1-[2-(4-Chloro-phenyl)-ethyl] -2-methyl-1,2,3,4-tetrahydro-isoquinoline-6,7-diol], for which the IC50 came to 19 µM in test [2], 0.28 µM in test [3], 0.29 µM in test [1] (setting [4]) and 116 µM in test [1] (setting [5]).
Regarding `COc1cc2c(cc1OC)C(CC(O)c1ccc([N+](=O)[O-])cc1)N(C)CC2` (stereo not shown) [G, 2-(6,7-Dimethoxy-2-methyl-1,2,3,4-tetrahydroisoquinolin-1-yl)-1-(4-nitrophenyl)-ethanol], the IC50 in test [1] (setting [4]) was 0.46 µM; in test [1] (setting [5]) it was 87 µM.
As to `COc1cc2c(cc1OC)C(CCc1ccc(Cl)cc1)N(C)C1CCCCC21` (stereo not shown) [F, 6-[2-(4-Chloro-phenyl)-ethyl]-8,9-dimethoxy-5-methyl-1,2,3,4,4a,5,6,10b-octahydro-phenanthridine], the IC50 is more than 30 µM in test [2], less than 0.1 µM in test [3], 0.4 µM in test [1] (setting [4]) and 315 µM in test [1] (setting [5]).
Take `COc1cc2c(cc1O)C(CCc1ccc(Cl)cc1)N(C)CC2` (stereo not shown) [B, 1-[2-(4-Chloro-phenyl)-ethyl]-6-methoxy-2-methyl-1,2,3,4-tetrahydroisoquinolin-7-ol]: the figures for the IC50 in test [1] (setting [4]) and in test [1] (setting [5]) were 0.09 µM and 54 µM, respectively.
In the case of `COc1ccc(C(O)CC2c3cc(OC)c(OC)cc3CCN2C)cc1` (stereo not shown) [I], the IC50 in test [1] (setting [4]) was found to be 0.59 µM; in test [1] (setting [5]), 146 µM.
Taken in the same sequence, the figures for `COc1ccc2c(c1OC)CCN(C)C2CCc1ccc(Cl)cc1` (stereo not shown) [W] were 3.6 µM and 129 µM.
The like results for `COc1cc2c(cc1OC)C(CCc1ccccc1)N(C)CC2` (stereo not shown) [R] were, in that order, 2.1 µM and 147 µM.
Take `COc1cc2c(cc1OC)C(CC(OC(C)=O)c1ccc(Cl)cc1)N(C)CC2` (stereo not shown) [Q]: the IC50 in test [2] is 21 µM; in test [3] it was 1.2 µM; in test [1] (setting [4]), 1.76 µM; in test [1] (setting [5]) it was 161 µM.
On to `COc1cc2c(cc1OC)C(CCc1ccc(C)cc1)N(C)CC2` (stereo not shown) [E, 6,7-Dimethoxy-2-methyl-1-(2-p-tolyl-ethyl)-1,2,3,4-tetrahydroisoquinoline], for which the IC50 came out at 0.34 µM in test [1] (setting [4]) and 129 µM in test [1] (setting [5]).
With `COc1ccc(CCC2c3cc(OC)c(OC)cc3CCN2C)cc1` (stereo not shown) [M], the figures for the IC50 in test [1] (setting [4]) and in test [1] (setting [5]) were 1.39 µM and 95 µM, respectively.
As to `COc1cc2c(cc1OC)C(CCc1ccc(Br)cc1)N(C)CC2` (stereo not shown) [L], the IC50 in test [1] (setting [4]) turned out to be 1.37 µM; in test [1] (setting [5]) it was 198 µM.
The like results for `COc1cc2c(cc1OC)C(CC(O)c1cc(Cl)c(Cl)cc1Cl)N(C)CC2` (stereo not shown) [K] were, in that order, 0.91 µM and 613 µM.
For the compound `COc1cc2c(cc1OC)C(CC(O)c1ccc(Cl)cc1)N(C)CC2` (single isomer, unassigned) [C, 1-(4-Chloro-phenyl)-2-(6,7-dimethoxy-2-methyl-1,2,3,4-tetrahydroisoquinolin-1-yl)-ethanol], the IC50 in test [2] is more than 20 µM; in test [3], 0.043 µM; in test [1] (setting [4]), 0.12 µM; in test [1] (setting [5]), 191 µM.
With `CN1CCc2cc3c(cc2C1CCc1ccc(Cl)cc1)OCO3` (stereo not shown) [P], the IC50 was 1.7 µM in test [1] (setting [4]) and 95 µM in test [1] (setting [5]).
As to `COc1cc2c(cc1OC)C(CC(O)c1ccc(Cl)cc1)N(C)CC2` (single isomer, unassigned) [V], the IC50 is 2.9 µM in test [1] (setting [4]) and 110 µM in test [1] (setting [5]).
In the case of `COc1cc2c(cc1OC)C(CC(O)c1ccc(C)cc1)N(C)CC2` (stereo not shown) [A, 2-(6,7-Dimethoxy-2-methyl-1,2,3,4-tetrahydroisoquinolin-1-yl)-1-p-tolyl-ethanol], the IC50 in test [2] was more than 100 µM; in test [3], not above 0.1 µM; in test [1] (setting [4]) it was 0.04 µM; in test [1] (setting [5]), 223 µM.
Take `COc1cc2c(cc1OC)C(CCc1ccc(C(C)C)cc1)N(C)CC2` (stereo not shown) [N]: the IC50 in test [1] (setting [4]) came to 1.59 µM; in test [1] (setting [5]), 370 µM.
On to `COc1cc2c(cc1OC)C1CCCCC1NC2CCc1ccc(Cl)cc1` (stereo not shown) [H, 6-[2-(4-Chloro-phenyl)-ethyl]-8,9,dimethoxy-1,2,3,4,4a,5,6,10b-octahydrophenanthridine], for which the figures for the IC50 in test [1] (setting [4]) and in test [1] (setting [5]) were 0.5 µM and 589 µM, respectively.
Take `CN1CCc2cc(O)c(O)cc2C1CCc1ccc(Cl)c(Cl)c1` (stereo not shown) [T]: the IC50 was found to be 2.31 µM in test [1] (setting [4]) and 56 µM in test [1] (setting [5]).
Consider `COc1cc2c(cc1OC)C(CCc1ccc(Cl)c(Cl)c1)N(C)CC2` (stereo not shown) [AA], for which the IC50 is 4.62 µM in test [1] (setting [4]) and 185 µM in test [1] (setting [5]).
